{"source": "paper PMC2361651", "about": "(British Journal of Cancer, 2005)", "key": {"[1]": {"experiment": "Plasma pharmacokinetics of SU5416 and metabolites in Phase I patients (HPLC UV)", "assay_type": "in vivo, human", "conditions": "plasma, patients", "protocol": "Samples were taken prior to treatment infusion, 15 min into the infusion, at completion of the infusion and then at 5, 10, 20, 30, 45, 60, 120 and 240 min following the infusion. […] At the designated times, 4.0 ml of blood were collected into a lithium heparin tube, gently inverted and placed on ice to maintain the sample at 2–8°C. All samples were immediately centrifuged at 6000 r.p.m. at 4°C for 10 min, the supernatant divided between two 1.5 ml Nalgene cryovials and snap frozen in liquid nitrogen. Separated plasma samples were subsequently stored at −70°C until analysis.\nPharmacokinetic analysis was performed using a fully validated HPLC UV method ([Stopeck et al, 2002]). Plasma samples, standards (25–2000 ng ml^−1) and quality controls spiked with internal standards were extracted with acetonitrile. Following centrifugation, drying and reconstitution in 200 μl mobile phase, 20 μl were analysed by HPLC UV. Chromatography was carried out using a C18 analytical column, with a gradient mobile phase containing acetonitrile and 10 mM ammonium formate at pH 2.6. The flow rate was 0.8 ml min^−1 and the run-time 21 min. Detection was via UV absorption at a wavelength of 440 nm. The accuracy of the assay, reflected in relative error of measured concentration to theoretical (prepared) concentrations, was between 0.9 and 5.6% for all quality control samples.\nPharmacokinetic parameters were evaluated using WinNonLin Software®."}, "[2]": {"test_system": "receptor tyrosine kinases inhibited by the parent compound", "parameters": "method as in Mendel et al, 2000", "conditions": "ref Mendel et al, 2000; cited from earlier work"}}}
{"smiles": "Cc1cc(CO)[nH]c1/C=C1\\C(=O)Nc2ccccc21", "note": "[SU9838]", "values": [{"measurement": "distribution and clearance of metabolite", "setting": "[1]", "value": "large volume of distribution and rapid clearance"}, {"measurement": "metabolite as proportion of the total", "setting": "[1]", "value": 5.2, "unit": "%"}, {"measurement": "inhibitory activity for the receptor tyrosine kinases inhibited by the parent compound", "setting": "[2]", "value": "Neither metabolite shows inhibitory activity"}]}
